Reference: ChEMBL document CHEMBL5233271, “Discovering the Mechanisms of Wikstroelide E as a Potential HIV-Latency-Reversing Agent by Transcriptome Profiling” (J Nat Prod, 2021)
Active and inactive are the calls of the source. The calls are words filed in the database; no cut-off is given here.

Tests used:
[1] = system: J-Lat Tat-GFP Clone A2; test: Upregulation of CLIC1 gene expression in human J-Lat Tat-GFP Clone A2 cells at 10 nM measured after 6 hrs by transcriptome analysis; format: functional, cell-based
[2] = system: J-Lat Tat-GFP Clone A2; test: Upregulation of CORO1A gene expression in human J-Lat Tat-GFP Clone A2 cells at 10 nM measured after 6 hrs by transcriptome analysis; format: functional, cell-based
[3] = system: J-Lat Tat-GFP Clone A2; test: Upregulation of DDRGK1 gene expression in human J-Lat Tat-GFP Clone A2 cells at 10 nM measured after 6 hrs by transcriptome analysis; format: functional, cell-based
[4] = system: J-Lat Tat-GFP Clone A2; test: Upregulation of DGKA gene expression in human J-Lat Tat-GFP Clone A2 cells at 10 nM measured after 6 hrs by transcriptome analysis; format: functional, cell-based
[5] = system: J-Lat Tat-GFP Clone A2; test: Upregulation of FMNL1 gene expression in human J-Lat Tat-GFP Clone A2 cells at 10 nM measured after 6 hrs by transcriptome analysis; format: functional, cell-based
[6] = system: J-Lat Tat-GFP Clone A2; test: Upregulation of HSP90B1 gene expression in human J-Lat Tat-GFP Clone A2 cells at 10 nM measured after 6 hrs by transcriptome analysis; format: functional, cell-based
[7] = system: J-Lat Tat-GFP Clone A2; test: Upregulation of SACM1L gene expression in human J-Lat Tat-GFP Clone A2 cells at 10 nM measured after 6 hrs by transcriptome analysis; format: functional, cell-based
[8] = system: J-Lat Tat-GFP Clone A2; test: Downregulation of ADI1 gene expression in human J-Lat Tat-GFP Clone A2 cells at 10 nM measured after 6 hrs by transcriptome analysis; format: functional, cell-based
[9] = system: J-Lat Tat-GFP Clone A2; test: Downregulation of ARID4B gene expression in human J-Lat Tat-GFP Clone A2 cells at 10 nM measured after 6 hrs by transcriptome analysis; format: functional, cell-based
[10] = system: J-Lat Tat-GFP Clone A2; test: Downregulation of CCNB1 gene expression in human J-Lat Tat-GFP Clone A2 cells at 10 nM measured after 6 hrs by transcriptome analysis; format: functional, cell-based
[11] = system: J-Lat Tat-GFP Clone A2; test: Downregulation of CHEK1 gene expression in human J-Lat Tat-GFP Clone A2 cells at 10 nM measured after 6 hrs by transcriptome analysis; format: functional, cell-based
[12] = system: J-Lat Tat-GFP Clone A2; test: Downregulation of CNBP gene expression in human J-Lat Tat-GFP Clone A2 cells at 10 nM measured after 6 hrs by transcriptome analysis; format: functional, cell-based
[13] = system: J-Lat Tat-GFP Clone A2; test: Downregulation of FLNB gene expression in human J-Lat Tat-GFP Clone A2 cells at 10 nM measured after 6 hrs by transcriptome analysis; format: functional, cell-based
[14] = system: J-Lat Tat-GFP Clone A2; test: Downregulation of IKBKG gene expression in human J-Lat Tat-GFP Clone A2 cells at 10 nM measured after 6 hrs by transcriptome analysis; format: functional, cell-based
[15] = system: J-Lat Tat-GFP Clone A2; test: Downregulation of INTS10 gene expression in human J-Lat Tat-GFP Clone A2 cells at 10 nM measured after 6 hrs by transcriptome analysis; format: functional, cell-based
[16] = system: J-Lat Tat-GFP Clone A2; test: Downregulation of LRSAM1 gene expression in human J-Lat Tat-GFP Clone A2 cells at 10 nM measured after 6 hrs by transcriptome analysis; format: functional, cell-based
[17] = system: J-Lat Tat-GFP Clone A2; test: Downregulation of PRKCQ gene expression in human J-Lat Tat-GFP Clone A2 cells at 10 nM measured after 6 hrs by transcriptome analysis; format: functional, cell-based
[18] = system: NH2; test: Activation of NFkappaB signalling pathway in human NH2 cells assessed as increase in IkappaBalpha phosphorylation measured after 1 hr by Western blot analysis; format: cell-based; conditions: filed as activator, dose 0-80 nM
[19] = system: J-Lat Tat-GFP Clone A2; test: Activation of NFkappaB signalling pathway in human J-Lat Tat-GFP Clone A2 cells assessed as increase in IkappaBalpha phosphorylation measured after 1 hr by Western blot analysis; format: cell-based; conditions: filed as activator, dose 0-80 nM
[20] = system: NH2; test: Activation of NFkappaB signalling pathway in human NH2 cells assessed as increase in IkappaBalpha phosphorylation at 40 nM by Western blot analysis; format: cell-based; conditions: filed as activator, time 5-120 min, TDE = time-dependent effect
[21] = system: J-Lat Tat-GFP Clone A2; test: Activation of NFkappaB signalling pathway in human J-Lat Tat-GFP Clone A2 cells assessed as increase in IkappaBalpha phosphorylation at 40 nM by Western blot analysis; format: cell-based; conditions: filed as activator, time 5-120 min, TDE = time-dependent effect
[22] = system: Human immunodeficiency virus; test: HIV-latency reversing activity in human NH2 cells at 10 nM pretreated with BAY11-7082 for 1 hr followed by compound addition and measured after 12 hrs by luciferase based assay; format: functional, organism-based
[23] = system: NH2; test: Activation of NFkappaB signalling pathway in human NH2 cells assessed as increase in translocation of p65 from cytoplasm to nucleus at 40 nM pretreated with PKC inhibitor, Go6983 for 1 hr followed by compound addition and measured after 12 hrs by Western blot analysis; format: cell-based
[24] = system: Human immunodeficiency virus; test: HIV-latency reversing activity in human NH2 cells at 10 nM pretreated with JAK inhibitor, -decernotinib for 1 hr followed by compound addition and measured after 12 hrs by luciferase based assay; format: functional, organism-based
[25] = Cytotoxicity against human J-Lat 2D10 cells at 1 uM incubated for 72 hrs; format: toxicity, cell-based
[26] = Cytotoxicity against human NH1 cells at 1 uM incubated for 72 hrs; format: toxicity, cell-based; conditions: nh1, 72 h
[27] = Cytotoxicity against human NH2 cells at 1 uM incubated for 72 hrs; format: toxicity, cell-based; conditions: nh2, 72 h

For C=C(C)[C@]12C[C@@H](C)[C@@]34O[C@]5(CCCCCCC[C@H](C)[C@H]6[C@H](C)C(=O)[C@@](O)([C@H](O)[C@@]7(CO)O[C@H]7[C@H]3[C@H]1O5)[C@@H]64)O2, the Activity [1] was “Active”, the Activity [2] was “Active” and the Activity [3] was “Active”. The Activity [4] was “Active”, the Activity [5] was “Active” and the Activity [6] was “Active”. For the same compound, the Activity [7] was “Active”, the Activity [8] was “Active” and the Activity [9] was “Active”. For the same compound, the Activity [10] was “Active”, the Activity [11] was “Active” and the Activity [12] was “Active”. For the same compound, the Activity [13] was “Active”, the Activity [14] was “Active” and the Activity [15] was “Active”. For the same compound, the Activity [16] was “Active”, the Activity [17] was “Active” and the Activity [18] was “Dose-Dependent Effect”. For the same compound, the Activity [19] was “Dose-Dependent Effect”, the Activity [20] was “Tde” and the Activity [21] was “Tde”. The Activity [22] was “inactive”, the Activity [23] was “inactive” and the Activity [24] was “inactive”. For the same compound, the Activity [25] was “Non-Toxic”, the Activity [26] was “Non-Toxic” and the Activity [27] was “Non-Toxic”.
